Measured values: patent US8865672B2, “Prevention of tissue ischemia and related methods” (The United States of America, as represented by the …, priority 2006, dated 2014)
Entries after “also recorded” stand apart in the source; their conditions may differ.

What was measured:
[1] = tested on: murine WT and TSP1-null platelets; test: cGMP in murine platelets; assay type: cell-based, mouse; conditions: WT and null platelets, TSP1 2.2 nM
Method: After induction of general anesthesia with isoflurane 2%, age and sex matched C57BL/6 WT and TSP1-null mice underwent cardiac puncture. Blood was aspirated into 1 cc syringes with a 25 gauge needle containing 100 μl heparin (Heparin Lock Flush, Abbott, Chicago, Ill.), mixed with 100 μl 3% ACD and centrifuged in 1.2 ml S-Monovette separation tubes (Sarstedt, Germany). PRP was aspirated off, centrifuged, and the resulting platelet pellet was resuspended in 200 μl of Tyrode's buffer.
Fresh human platelets at 2×10^5 platelets/μl in Tyrode's buffer or PRP were pre-incubated with the indicated agents for 15 minutes and then challenged with DEA/NO for the indicated time interval at room temperature and total cGMP determined via immunoassay (Amersham, GE Healthcare, Buckinghamshire, UK). Murine WT and TSP1-null platelets were treated with DEA/NO and cGMP flux measured.

Rap1 = Rap1 pulldown assay in platelets; assay type: cell-based, human; conditions: thrombin
Method: Platelets were diluted to 5×10^8 platelets/mL in Tyrode's buffer and treated with various reagents for the indicated times. Immediately following treatment, platelets were pelleted at 13,000 g for 30 seconds at 4° C. and resuspended in ice-cold lysis buffer containing 20 mM HEPES (pH 7.5), 100 mM NaCl, 10 mM EGTA, 20 mM MgCl2, 8 mM α-glycerophosphate, 1% Triton X-100, 1 mM phenylmethylsulfonylfluoride, 40 mM NaF, 1 mM Na3VO4, 10 μg/mL aprotinin, and 10 μg/mL leupeptin. Lysates were centrifuged at 13,000 g for 5 minutes at 4° C. and the supernatants were incubated for 15 minutes on a tumbler at 4° C. with glutathione Sepharose 4B beads (Amersham) prebound with a GST-Ral GDS RBD fusion protein (kind gift of J. Silvio Gutkind, NIH, Bethesda, Md.). Bead complexes were washed by centrifugation at 6,000 g for 30 seconds at 4° C. followed by resuspension in 0.5 mL lysis buffer; 2 washes were performed for each sample. After the second wash, beads were resuspended in an equal volume of 2×SDS sample buffer and stored at −20° C. For Western analysis, bead-bound proteins in sample buffer were boiled for 10 minutes and subjected to electrophoresis on NuPAGE 10% Bis-Tris gels (Invitrogen, Carlsbad, Calif.), transferred to Immobilon-P PVDF membranes (Millipore, Billerica, Mass.), and blotted with rabbit polyclonal anti-Rapt (sc-65; Santa Cruz Biotechnology, Santa Cruz, Calif.).

murine ASMC (CD47 null) = test: Murine ASMC proliferation; assay type: cell-based, mouse; conditions: CD47 null MASMC
Method: Murine ASMC were obtained from aortic segments harvested sterilely from C57B1/6 CD47 null or CD36 null mice as described (Ray et al., Methods Cell Sci 23:185-188, 2001) and cultured in SM-GM (Cambrex)+20% FCS. In the case of CD36 null cells, culture flasks were pre-coated with 1% gelatin prior to cell plating. Wild type C57B1/6 ASMC cultures were prepared as previously described (Isenberg et al., Matrix Biol 24:110-123, 2005). Cell culture purity was determined by immunohistochemistry staining for α-smooth muscle actin. Cells were used within passage 1 to 4 to minimize overgrowth of other cell types.
Proliferation of vascular cells was measured with a non-radioactive colorimetric assay (CellTiter 96, Promega, Madison, Wis.). Briefly, to each well of a 96-well culture plate (Nunc, Denmark) 5×10^3 cells were suspended in 100 μl of culture medium with indicated treatments and incubated for 72 hours at 37° C. in a 5% CO2 atmosphere. Following incubation 20 μl of tetrazolium compound/solubilization agent was added and incubation continued for 4 hours under the same conditions. The plate was then read on a MR580 Microelisa Auto Reader (Dynatech) at a wavelength of 490 nm. Appropriate zero time controls were run for all assays and the optical density readings obtained then subtracted from those obtained at 72 hours.

VASP = test: Phospho-Ser239 VASP Western blotting in platelets; assay type: cell-based, human; conditions: 8Br-cGMP 100 μM, TSP1 2.2 nM
Method: Washed human platelets (resuspended in Tyrode's buffer to 3×10^8 platelets/mL to a final volume of 0.5 mL) were incubated at 37° C. for 30 minutes before treatment. TSP1 was added 15 minutes prior to treatment. Immediately following treatment, platelets were pelleted at 13,000×g at 4° C. for 15 seconds and resuspended in 1 mL of a lysis buffer containing 10 mM Tris-HCl (pH 7.5), 150 mM NaCl, 1 mM EDTA, 1 mM Na3VO4, 40 mM NaF, 1 μg/mL aprotinin, 1 μg/mL leupeptin, 1 mM phenylmethysulfonylfluoride and 1% […]. This suspension was placed at 4° C. with gentle agitation for 5 minutes before centrifugation at 13000×g for 5 minutes at 4° C. 5 μg lysates were electrophoresed on 4-12% Bis-Tris NuPAGE gels, transferred to Immobilon PVDF membranes and probed with a rabbit polyclonal antiserum against Serine 239-phosphorylated VASP (Santa Cruz Biotechnology, Santa Cruz, Calif.).

[2] = tested on: murine aortic VSMC (WT, TSP1 null, CD47 null); test: 3D collagen gel contraction assay, murine VSMC; assay type: cell-based, mouse; conditions: for relaxation of pre-contracted VSMC by NO: TSP1 2.2 nM
Method: Type I collagen gel (3 mg/ml) with 10×M199 (Gibco, Grand Island, N.Y.) at a 10:1 ratio of collagen to medium was prepared, pH balanced with NaOH and seeded with either HAVSMC or VSMC harvested from aortic segments from C57B16 WT or TSP1 null mice (50,000 cells in 75 μl of gel/well) and aliquoted to 96-well plates (Nunc, Denmark). Plates were incubated for 12 h 37° C. and 5% CO2 allowing for gelation and cell spreading, gently released from the well walls and incubated in serum and additive deficient growth medium with 0.1% BSA in the presence of the indicated treatment agents for 10 h. Contraction was determined by measuring the diameter in perpendicular planes (x, y) of each disk, an average obtained and surface area calculated as (d/2)^2π. Experiments were performed in triplicate. Results represent the mean±SD of at least three separate experiments.
Collagen gel contraction assays were performed using murine derived VSMC (7.5×10^4 cells/gel) as described (Isenberg et al., Blood 2006; Example 2). Wells receiving TSP1 were pre-incubated with the indicated concentrations of agent overnight. Contraction was initiated with either 10% FCS or sphingosine 1-phosphate (S1P, 100 nM).

## TSP1: thrombospondin-1 prepared from human platelets
[1]
  NO-driven flux in platelet cGMP: decreased the NO-driven flux in platelet cGMP
Rap1
  Rap1 activation (GTP loading): reversed the inhibition of Rap1 activation; also recorded: did not increase Rap1 activation
Murine ASMC (CD47 null)
  NO-stimulated proliferation: did not inhibit
VASP
  VASP phosphorylation at Ser239: inhibited
[2]; CD47 null VSMC
  relaxation of pre-contracted VSMC by NO: absent
[2]; TSP1 null murine VSMC
  contractile response to S1P: increased the contractile response of TSP1 null cells to S1P
[2]; wild type cells
  relaxation of pre-contracted VSMC by NO: completely inhibited
